Measurements published in PMC12389735, “Polyoxypregnane Aryl Esters Prepared from Metaplexis japonica (Thunb.) Makino and Their Role in Reversing Multidrug Resistance in HepG2/Dox Cells” (Pharmaceuticals, 2025).

What was measured:
[1] = test system: HepG2/Dox cells; assay: CCK-8 cell viability / reversal of P-gp-mediated MDR in HepG2/Dox cells; format: cell-based, Human; settings: for Cytotoxicity to HepG2/Dox cells (viability): compound alone at 5 or 10 μM; for Cytotoxicity to HepG2/Dox cells (viability) / IC50: 48 h; for Reversal of resistance of HepG2/Dox cells to paclitaxel and vinblastine: non-cytotoxic concentrations (10 μM); for IC50: Homo sapiens, HepG2/Dox, anticancer drug alone, CCK-8, read-out: IC50 ± SD HepG2/Dox; for Fsen (fold increase in sensitivity): drug alone (reference); for Fres (fold of resistance): drug alone, IC50 in HepG2/Dox / IC50 in HepG2
[2] = test system: Caco-2 cell monolayers; assay: Bidirectional transport assay on Caco-2 cell monolayers; settings: from ER values of less than 2
[3] = as above; settings: human; for Papp B→A at 2 h: Caco-2, pH 7.4; for Papp A→B at 2 h, 2 μM: Caco-2, pH 7.4, Apparent permeability coefficient (Papp) from AP to BL; for Papp A→B at 2 h: Caco-2, pH 7.4, A→B Transport Papp, pH 7.40; for Papp A→B at 2 h / recovery at 2 h: compound 1, 1a 2 μM, digoxin 10 μM
[4] = test system: P-gp; assay: Western blotting of P-gp expression in HepG2/Dox cells; format: cell-based, Human; settings: alone or in combination with paclitaxel
Protocol: (§1) In 100 mm culture dishes, 1 × 10^6 cells in 10 mL medium were seeded and incubated for 24 h, and then incubated with the test sample in 10 mL fresh medium for another 24 h. Total proteins were extracted using RIPA cell lysis buffer containing PMSF while protein content was determined using the BCA kit. An equal amount of the protein sample was subjected to SDS-PAGE for separation and transferred to PVDF membranes. The membranes were blocked in 5% defat milk at RT for 1 h, and then incubated with the primary antibody of the protein of interest (P-gp, caspase 8 or caspase 9) or GAPDH (internal standard) at 4 °C overnight, and then with the secondary antibody at RT for 1 h. Protein bands were detected under the chemiluminescence scanner, while Image J was employed to analyze the gray value of the protein bands.

[5] = test system: HepG2/Dox cells; assay: Annexin V/PI apoptosis by flow cytometry in HepG2/Dox cells; format: cell-based, Human; settings: 24 h; for Apoptosis rates of HepG2/Dox cells: 10 μM in combination with 500 nM paclitaxel, vs PTX alone
Protocol: Cells were then incubated for another 24 h in 2 mL fresh medium containing the test samples. The medium and cells (digested by EDTA-free trypsin) were collected and centrifuged (1000 rpm, 5 min). The cells were then suspended in PBS and stained using the Annexin V/PI kit by following the procedures provided with the kit, and the apoptosis rate of cells with different treatments was analyzed using flow cytometry.

[6] = target: T1, Human ABCB1 (Homo sapiens, UniProt P08183); assay: Surface plasmon resonance binding to full-length ABCB1 (Biacore); settings: SPR; for Kd: CM5 chip, read-out: KD (equilibrium dissociation constant)
T1 construct: Flag; purchased MedChemExpress HY-P703175; host or cells: HEK293
T1 sequence (P08183 whole entry): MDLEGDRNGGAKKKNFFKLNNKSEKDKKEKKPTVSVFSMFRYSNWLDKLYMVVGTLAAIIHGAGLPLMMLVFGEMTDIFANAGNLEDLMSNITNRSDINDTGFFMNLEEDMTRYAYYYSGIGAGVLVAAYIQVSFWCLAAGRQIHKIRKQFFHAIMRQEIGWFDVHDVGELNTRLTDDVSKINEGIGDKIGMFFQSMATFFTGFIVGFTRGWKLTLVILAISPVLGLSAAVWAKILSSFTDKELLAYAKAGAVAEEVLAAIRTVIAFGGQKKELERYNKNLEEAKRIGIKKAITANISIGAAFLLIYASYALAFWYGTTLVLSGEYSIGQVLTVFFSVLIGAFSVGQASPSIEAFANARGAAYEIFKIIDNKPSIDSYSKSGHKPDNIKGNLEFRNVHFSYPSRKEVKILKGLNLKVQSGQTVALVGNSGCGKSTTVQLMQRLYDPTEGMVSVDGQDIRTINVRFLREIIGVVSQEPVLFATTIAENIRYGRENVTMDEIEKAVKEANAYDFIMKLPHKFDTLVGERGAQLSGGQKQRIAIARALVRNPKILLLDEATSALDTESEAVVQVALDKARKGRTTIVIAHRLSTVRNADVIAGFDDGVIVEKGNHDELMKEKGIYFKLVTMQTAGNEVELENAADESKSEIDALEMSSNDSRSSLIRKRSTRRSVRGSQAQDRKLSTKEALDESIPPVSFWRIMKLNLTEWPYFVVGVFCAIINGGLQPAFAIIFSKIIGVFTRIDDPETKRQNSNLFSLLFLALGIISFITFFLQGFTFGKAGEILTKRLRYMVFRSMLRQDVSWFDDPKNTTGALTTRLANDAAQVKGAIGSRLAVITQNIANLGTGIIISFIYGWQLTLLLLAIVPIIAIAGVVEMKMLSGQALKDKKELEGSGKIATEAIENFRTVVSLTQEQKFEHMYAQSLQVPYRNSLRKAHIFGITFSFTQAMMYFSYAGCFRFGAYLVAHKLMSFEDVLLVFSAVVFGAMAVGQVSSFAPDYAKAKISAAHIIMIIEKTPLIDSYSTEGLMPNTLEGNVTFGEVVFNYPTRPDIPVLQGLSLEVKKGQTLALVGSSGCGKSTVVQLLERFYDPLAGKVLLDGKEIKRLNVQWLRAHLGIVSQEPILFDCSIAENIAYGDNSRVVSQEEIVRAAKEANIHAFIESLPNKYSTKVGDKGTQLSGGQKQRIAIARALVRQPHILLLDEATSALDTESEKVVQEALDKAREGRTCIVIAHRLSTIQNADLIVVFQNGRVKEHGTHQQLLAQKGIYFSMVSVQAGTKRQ
Protocol: The human recombinant ABCB1 full-length protein (HEK293, Flag) (MedChemExpress, Monmouth Junction, NJ, USA; #HY-P703175) was coupled onto a CM5 sensor chip (Cytiva, Marlborough, MA, USA; #BR-1005-30) via carboxyl groups on the dextran. After incubation, a series of concentrations of compound 1 or 1a flowed through the protein–CM5 system. Binding was tested and analyzed using a Biacore K8 instrument (GE Healthcare, Chicago, IL, USA) and Biacore Insight evaluation software (https://www.cytivalifesciences.com/en/us, accessed on 5 August 2025) (Cytiva, Marlborough, MA, USA).

[7] = test system: caspase 9; assay: Western blotting of caspase 9 expression in HepG2/Dox cells; format: cell-based, Human
Protocol: as §1

[8] = test system: caspase 8; assay: Western blotting of caspase 8 expression in HepG2/Dox cells; format: cell-based, Human
Protocol: as §1

[9] = target: T2, P-gp (Homo sapiens, UniProt P08183); assay: Rhodamine 123 efflux assay for P-gp function in HepG2/Dox cells; format: cell-based; settings: 10 μM, 5 μM Rh-123, 40 min; vs Rh-123 alone
T2 construct: Doxorubicin-induced P-gp overexpression HepG2/Dox subline was a gift from Prof; Fong; endogenous in cells; host or cells: HepG2/Dox (doxorubicin-induced P-gp-overexpressing subline of HepG2)
T2 sequence (P08183 whole entry): as above
Protocol: After removal of the medium via centrifugation, the cells were washed with ice-cold PBS twice, resuspended in 300 μL ice-cold PBS, and transferred into flow cytometer tubes. Cellular fluorescence intensity was analyzed immediately using flow cytometry.

[10] = Caco-2, pH 7.4, A→B Transport Solution Recovery %
[11] = Caco-2, pH 7.4, B→A Transport Solution Recovery %
[12] = 10 μM combined with paclitaxel 0.5 μM
[13] = alone: paclitaxel 0.5 μM, compound 1 or 1a 10 μM

CC(O)C1(O)CCC2(O)C3CCC4CC(O)CCC4(C)C3CC(OC(=O)C=Cc3ccccc3)C12C [Compound 1, 3β,12β,14β,17β,20(S)-pentahydroxy-5α-pregnan-12β-O-(E)-cinnamate]
Cytotoxicity to HepG2/Dox cells (viability) [1]: non-cytotoxic
Fres to doxorubicin ([1]; doxorubicin + modulator 5 µM): 13.7
Fsen to doxorubicin ([1]; doxorubicin + modulator 5 µM): 2.6
Fres to doxorubicin ([1]; doxorubicin + modulator 10 µM): 5.0
Fsen to doxorubicin (reversal fold) ([1]; doxorubicin + modulator 10 µM): 7.1
Reversal of resistance of HepG2/Dox cells to paclitaxel and vinblastine [1]: completely reversed
Fres to paclitaxel ([1]; paclitaxel + modulator 5 µM): 3.9
Fsen to paclitaxel ([1]; paclitaxel + modulator 5 µM): 33.6
Fres to paclitaxel ([1]; paclitaxel + modulator 10 µM): 1.1
Fsen to paclitaxel (reversal fold) ([1]; paclitaxel + modulator 10 µM): 118.5
Fres to vinblastine ([1]; vinblastine + modulator 5 µM): 1.5
Fsen to vinblastine ([1]; vinblastine + modulator 5 µM): 91.5
Fres to vinblastine ([1]; vinblastine + modulator 10 µM): 0.7
Fsen to vinblastine (reversal fold) ([1]; vinblastine + modulator 10 µM): 198.3
P-gp substrate status [2]: not P-gp substrates
Papp B→A at 2 h [3]: 7.71 ± 0.61 ×10⁻⁶ cm/s
Papp A→B at 2 h, 2 μM [3]: 9.28 ×10⁻⁶ cm/s
Papp A→B at 2 h [3]: 9.28 ± 0.88 ×10⁻⁶ cm/s
recovery at 2 h [3, 10]: 44.6 ± 2.3%
recovery at 2 h [3, 11]: 50.4 ± 1.7%
Expression level of cellular P-gp [4]: did not influence
Apoptosis rates of HepG2/Dox cells [5]: significantly increased
Ka (association rate constant) [6]: 65800 M⁻¹ s⁻¹
Kd (dissociation rate constant) [6]: 0.364 s⁻¹
Kd [6]: 5.53 µM
Ka (association rate constant) ([6]; listed as compound 1): > 10^4 M^−1s^−1
Kd (dissociation rate constant) ([6]; listed as compound 1): > 10^−1 s^−1
Expression of caspase 9 [7, 12]: significantly upregulated
Expression of caspase 9 [7, 13]: did not change
Expression of caspase 8 [8, 12]: did not change
Expression of caspase 8 [8, 13]: did not change
Fluorescence intensity of Rh-123 in cells (inhibited efflux) [9]: significantly increased

CC(O)C1(O)CCC2(O)C3CCC4CC(OC(=O)c5cccnc5)CCC4(C)C3CC(OC(=O)C=Cc3ccccc3)C12C [Compound 1a, 3β,12β,14β,17β,20(S)-pentahydroxy-5α-pregnan-3β-O-nicotinate-12β-O-(E)-cinnamate]
Cytotoxicity to HepG2/Dox cells (viability) [1]: non-cytotoxic
Fres to doxorubicin ([1]; doxorubicin + modulator 5 µM): 1.9
Fsen to doxorubicin ([1]; doxorubicin + modulator 5 µM): 18.8
Fres to doxorubicin ([1]; doxorubicin + modulator 10 µM): 4.1
Fsen to doxorubicin (reversal fold) ([1]; doxorubicin + modulator 10 µM): 18.8
Fsen to doxorubicin (reversal fold) ([1]; doxorubicin + modulator 10 µM, listed as compound 1a): 8.6
Reversal of resistance of HepG2/Dox cells to paclitaxel and vinblastine [1]: completely reversed
Fres to paclitaxel ([1]; paclitaxel + modulator 5 µM): 0.8
Fsen to paclitaxel ([1]; paclitaxel + modulator 5 µM): 155.0
Fres to paclitaxel ([1]; paclitaxel + modulator 10 µM): 0.4
Fsen to paclitaxel (reversal fold) ([1]; paclitaxel + modulator 10 µM): 335.8
Fres to vinblastine ([1]; vinblastine + modulator 5 µM): 1.8
Fsen to vinblastine ([1]; vinblastine + modulator 5 µM): 79.3
Fres to vinblastine ([1]; vinblastine + modulator 10 µM): 1.0
Fsen to vinblastine (reversal fold) ([1]; vinblastine + modulator 10 µM): 140
P-gp substrate status [2]: not P-gp substrates
Papp B→A at 2 h [3]: 0.24 ± 0.02 ×10⁻⁶ cm/s
Papp A→B at 2 h, 2 μM [3]: 0.27 ×10⁻⁶ cm/s
Papp A→B at 2 h [3]: 0.27 ± 0.03 ×10⁻⁶ cm/s
recovery at 2 h [3, 10]: 5.3 ± 0.5%
recovery at 2 h [3, 11]: 12.2 ± 0.7%
Expression level of cellular P-gp [4]: did not influence
Apoptosis rates of HepG2/Dox cells [5]: significantly increased
Ka (association rate constant) [6]: 41600 M⁻¹ s⁻¹
Kd (dissociation rate constant) [6]: 0.155 s⁻¹
Kd [6]: 3.72 µM
Ka (association rate constant) ([6]; listed as compound 1a): > 10^4 M^−1s^−1
koff ([6]; read-out: Kd (dissociation rate constant)): > 0.1 s⁻¹
Expression of caspase 9 [7, 12]: significantly upregulated
Expression of caspase 9 [7, 13]: did not change
Expression of caspase 8 [8, 12]: did not change
Expression of caspase 8 [8, 13]: did not change
Fluorescence intensity of Rh-123 in cells (inhibited efflux) [9]: significantly increased

C[C@H]1O[C@@H](O[C@H]2[C@@H](O)C[C@H](O[C@H]3[C@@H](O)C[C@H](O[C@H]4CC[C@@]5(C)[C@H](CC[C@@H]6[C@@H]5C[C@@H](O)[C@]5(C)[C@@H](C7=CC(=O)OC7)CC[C@]65O)C4)O[C@@H]3C)O[C@@H]2C)C[C@H](O)[C@@H]1O [Digoxin, reference compound]
Papp B→A at 2 h [3]: 22.3 ± 1.02 ×10⁻⁶ cm/s
Papp A→B at 2 h [3]: 0.12 ± 0.02 ×10⁻⁶ cm/s
recovery at 2 h [3, 10]: 97.9 ± 8.1%
recovery at 2 h [3, 11]: 94.4 ± 1.9%

COc1cccc2c1C(=O)c1c(O)c3c(c(O)c1C2=O)C[C@@](O)(C(=O)CO)C[C@@H]3O[C@H]1C[C@H](N)[C@H](O)[C@H](C)O1 [Doxorubicin, reference compound]
IC50 [1]: 6.03 ± 1.15 µM
Fsen (fold increase in sensitivity) [1]: 1
Fres (fold of resistance) [1]: 35.5

CC(=O)O[C@H]1C(=O)[C@@]2(C)[C@H]([C@H](OC(=O)c3ccccc3)[C@]3(O)C[C@H](OC(=O)[C@H](O)[C@@H](NC(=O)c4ccccc4)c4ccccc4)C(C)=C1C3(C)C)[C@]1(OC(C)=O)CO[C@@H]1C[C@@H]2O [Paclitaxel, reference compound]
IC50 [1]: 4.03 ± 0.06 µM
Cell apoptosis in HepG2/Dox cells ([5]; 500 nM alone): did not induce cell apoptosis
Expression of caspase 9 [7, 13]: did not change
Expression of caspase 8 [8, 13]: did not change

COc1ccc(CCN(C)CCCC(C#N)(c2ccc(OC)c(OC)c2)C(C)C)cc1OC (stereo not drawn) [VRP, Verapamil, reference compound]
Fres to doxorubicin ([1]; doxorubicin + modulator 10 µM): 1.1
Fres to paclitaxel ([1]; paclitaxel + modulator 10 µM): 1.3
Fres to vinblastine ([1]; vinblastine + modulator 10 µM): 2.1
Apoptosis rates of HepG2/Dox cells [5]: significantly increased

CC[C@]1(O)C[C@@H]2CN(CCc3c([nH]c4ccccc34)[C@@](C(=O)OC)(c3cc4c(cc3OC)N(C)[C@H]3[C@@](O)(C(=O)OC)[C@H](OC(C)=O)[C@]5(CC)C=CCN6CC[C@]43[C@@H]65)C2)C1 [Vinblastine, reference compound]
IC50 [1]: 2.38 ± 0.62 µM
Fsen (fold increase in sensitivity) [1]: 1
Fres (fold of resistance) [1]: 140.0
Fres (fold of resistance) ([1]; listed as vinblastine): 140
